Test results as given in patent US4910152A, “Method for binding opioid receptors” (priority 1986, dated 1990).
“Also recorded” adds a separate entry of the source. Read-outs that look alike come from different tables or passages of the source.

What was measured:
[1] = target: T1, opioid receptors in rat brain membrane preparations (Rattus norvegicus, UniProt P33535); assay: 3H-DHM displacement from rat brain membranes (Example 4 method); settings: for Hill coefficient / binding activity in synaptosomal membranes (in words): 3H-DHM displacement; for binding activity in synaptosomal membranes (in words): rat brain synaptosomal membranes
T1 sequence (P33535 whole entry): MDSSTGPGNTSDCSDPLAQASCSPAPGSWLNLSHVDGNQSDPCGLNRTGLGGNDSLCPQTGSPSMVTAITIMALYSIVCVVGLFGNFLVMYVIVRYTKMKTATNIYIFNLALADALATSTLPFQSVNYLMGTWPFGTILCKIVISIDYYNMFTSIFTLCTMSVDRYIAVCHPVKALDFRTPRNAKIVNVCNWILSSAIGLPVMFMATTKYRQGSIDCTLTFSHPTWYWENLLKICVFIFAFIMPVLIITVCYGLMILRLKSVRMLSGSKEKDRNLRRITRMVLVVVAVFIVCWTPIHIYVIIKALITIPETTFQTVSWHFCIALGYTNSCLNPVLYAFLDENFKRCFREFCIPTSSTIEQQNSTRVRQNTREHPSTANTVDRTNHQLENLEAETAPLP
Method: (§2) The data was analyzed, using the program LIGAND of Munson and Rodbard.

[2] = target: T1, opioid receptors in rat brain membrane preparations; assay: biochemical
Method: as §2

[3] = target: T2, guinea-pig ileum myenteric plexus-longitudinal muscle (Cavia porcellus, UniProt A0ACM8Q262); assay: Guinea-pig ileum myenteric plexus-longitudinal muscle bioassay, single dose method, normorphine agonist (Example 12); format: cell-based; settings: for opioid antagonism, G.p.i.: G.p.i. bioassay; for Relative potency, bioassay G.P.I.: Ke of naloxone in m.v.d. taken to be 1; for reversal of antagonism by naloxone, G.p.i.: addition of naloxone; for duration of action in the G.p.i. (in words): compared with parent opioids; for t1/2 (half-time of recovery), guinea-pig M. plexus / Kb: geometric mean (95% confidence limits); for Kb: agonist normorphine, read-out: Ke (dissociation constant), guinea-pig M. plexus
T2 construct: normorphine as agonist
T2 sequence (A0ACM8Q262 1-400): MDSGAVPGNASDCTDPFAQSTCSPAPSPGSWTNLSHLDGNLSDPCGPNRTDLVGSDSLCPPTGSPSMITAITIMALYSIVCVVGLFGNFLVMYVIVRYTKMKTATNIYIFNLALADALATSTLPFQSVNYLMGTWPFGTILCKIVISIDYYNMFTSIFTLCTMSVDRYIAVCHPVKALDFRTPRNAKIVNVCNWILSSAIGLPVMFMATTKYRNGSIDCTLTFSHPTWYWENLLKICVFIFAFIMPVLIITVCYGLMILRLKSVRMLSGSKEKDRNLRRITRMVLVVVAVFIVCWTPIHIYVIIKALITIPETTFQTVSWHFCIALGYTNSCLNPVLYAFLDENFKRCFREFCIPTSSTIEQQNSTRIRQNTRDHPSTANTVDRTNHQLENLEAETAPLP

[4] = target: T3, mouse vas deferens (Mus musculus, UniProt P32300); assay: Mouse vas deferens bioassay, single dose method, DALE agonist (Example 12); format: cell-based; settings: for inhibitory effect on the contractions (in words) / duration / reversibility of antagonism in the m.v.d. (in words): m.v.d.; for opioid antagonism, m.v.d.: m.v.d. bioassay; for inhibition of DALE-induced contractions of the m.v.d.: 25-1000 nM, all doses tested; for Relative potency, bioassay M.V.D.: Ke of naloxone in m.v.d. taken to be 1; for t1/2 (half-time of recovery), mouse vas deferens: geometric mean (95% confidence limits); for reversal of antagonism by naloxone, m.v.d.: naloxone up to 10,000 nM; for M.V.D./G.P.I. (relative affinity): ratio of m.v.d. to G.p.i. relative potency
T3 construct: Each of several samples of mouse vas deferens (m.v.d.); tissue A-Lab, Solna, Sweden (mice); host or cells: vas deferens of male NMRI mice
T3 sequence (P32300 whole entry): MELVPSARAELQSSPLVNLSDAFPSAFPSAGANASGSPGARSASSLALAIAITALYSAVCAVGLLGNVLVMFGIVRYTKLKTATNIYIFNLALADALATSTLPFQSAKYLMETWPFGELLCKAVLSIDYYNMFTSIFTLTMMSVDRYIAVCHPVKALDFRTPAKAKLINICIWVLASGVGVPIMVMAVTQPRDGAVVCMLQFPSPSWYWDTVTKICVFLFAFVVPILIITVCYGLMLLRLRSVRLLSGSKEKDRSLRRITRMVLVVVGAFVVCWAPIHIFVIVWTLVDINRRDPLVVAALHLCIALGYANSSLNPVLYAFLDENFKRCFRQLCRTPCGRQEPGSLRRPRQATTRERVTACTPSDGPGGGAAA

[5] = system: opioid receptors; settings: Hahn, Pasternak et al.; cited from earlier work
[6] = system: guinea pig ileum longitudinal muscle preparation; assay: Electrically stimulated guinea pig ileum longitudinal muscle (Example 5); format: cell-based
Method: 6-FN was tested for activity on an electrically stimulated guinea pig ileum longitudinal muscle preparation. In this test, a specimen of guinea pig ileum was stretched between two wires in a nutrient solution (2.5 mil.) and stimulated supramaximally at 0.1 Hz. In the absence of opioid agonists and antagonists electrical stimulation of the muscle results in contraction.

[7] = target: T4, mu-type opioid binding sites (Rattus norvegicus, UniProt P33535); assay: Mu-site binding, 0.2 nM [3H]-dihydromorphine, rat brain membranes; settings: for Relative potency, binding assay Mu: Ki of naloxone in inhibiting 3H-DALE taken to be 1; for Relative affinity, mu: Ki^-1 x 100 / sum of Ki^-1 values; for Ki: [3H]-DHM, read-out: Ki, mu (inhibition of binding)
T4 construct: Rat brain membranes were prepared; from tissue; host or cells: rat brain membranes
T4 sequence (P33535 whole entry): as the sequence (P33535 whole entry) above
Method: (§1) Rat brain membranes were prepared and binding assays performed as previously described by Neil, A. in "Detection and characterization of four opioid binding sites in the mouse brain," Acta Pharmacol. Tox. 56: 108-116 (1985).

[8] = target: T5, kappa-type opioid binding sites (Rattus norvegicus, UniProt P34975); assay: Kappa-site binding, 1 nM [3H]-(±)-EKC with 200 nM DAGO and DADL, rat brain membranes; settings: for Relative potency, binding assay Kappa: Ki of naloxone in inhibiting 3H-DALE taken to be 1; for Relative affinity, kappa: Ki^-1 x 100 / sum of Ki^-1 values
T5 construct: Rat brain membranes were prepared; from tissue; host or cells: rat brain membranes
T5 sequence (P34975 whole entry): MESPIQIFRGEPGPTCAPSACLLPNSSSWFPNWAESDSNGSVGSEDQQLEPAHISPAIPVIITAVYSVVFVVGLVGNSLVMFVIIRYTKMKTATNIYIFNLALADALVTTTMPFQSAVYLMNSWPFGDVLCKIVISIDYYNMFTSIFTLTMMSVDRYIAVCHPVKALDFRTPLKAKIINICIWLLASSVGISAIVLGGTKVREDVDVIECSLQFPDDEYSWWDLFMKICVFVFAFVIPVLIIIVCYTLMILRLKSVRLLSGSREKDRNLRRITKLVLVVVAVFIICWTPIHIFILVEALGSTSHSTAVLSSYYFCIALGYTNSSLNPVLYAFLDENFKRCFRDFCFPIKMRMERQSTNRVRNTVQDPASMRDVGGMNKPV
Method: as §1

[9] = target: T6, delta-type opioid binding sites (Rattus norvegicus, UniProt P33533); assay: Delta-site binding, 1 nM [3H]-DALE with 30 nM DAGO, rat brain membranes; settings: for Relative potency, binding assay Delta: Ki of naloxone in inhibiting 3H-DALE taken to be 1; for Relative affinity, delta: Ki^-1 x 100 / sum of Ki^-1 values; for delta affinity / selectivity (in words): delta-type opioid receptors
T6 construct: Rat brain membranes were prepared; from tissue; host or cells: rat brain membranes
T6 sequence (P33533 whole entry): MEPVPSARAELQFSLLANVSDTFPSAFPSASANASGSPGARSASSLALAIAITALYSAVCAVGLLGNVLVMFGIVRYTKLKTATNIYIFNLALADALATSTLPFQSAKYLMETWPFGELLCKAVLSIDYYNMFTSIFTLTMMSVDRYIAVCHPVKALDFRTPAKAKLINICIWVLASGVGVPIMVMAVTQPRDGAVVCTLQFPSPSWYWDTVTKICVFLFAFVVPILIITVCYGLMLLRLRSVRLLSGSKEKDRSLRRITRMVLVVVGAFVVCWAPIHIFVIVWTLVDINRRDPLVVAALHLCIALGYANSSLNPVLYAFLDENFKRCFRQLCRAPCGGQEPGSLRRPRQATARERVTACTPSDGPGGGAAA
Method: as §1

[10] = target: opioid receptor sites (3H-DALE); assay: Site selectivity displacement, 3H-DALE indicator (with cold DHM); format: binding; settings: 0.43 nM cold DHM and 0.43 nM DALE*; determined graphically
Excerpt: In FIG. 1 it will be noted that compounds which displace the two indicator ligands differently provide a curve which is convex towards the axis of the labeled indicator ligand which is less favorably displaced.

[11] = target: T1, opioid receptors in rat brain membrane preparations
Method: as §2

[12] = feeding induced by 2-deoxy-D-glucose; cited from earlier work

## O=C1OC2(c3ccc(O)cc3Oc3cc(O)ccc32)c2ccc(NC(=S)NN=C(c3ccccc3)c3ccccc3)cc21 [6-FB, 1-(N)-fluoresceinyl benzophenone thiosemicarbazone, reference compound]
[1]; 10^-6 M
  displacement of 3H-DHM (result in words): inactive

## O=C1OC2(c3ccc(O)cc3Oc3cc(O)ccc32)c2ccc(NC(=S)NN=C3CC[C@@]4(O)[C@H]5Cc6ccc(O)c7c6[C@@]4(CCN5CC4CC4)[C@H]3O7)cc21 [6-FNX, 1-(N)-fluoresceinyl naltrexone thiosemicarbazone]
[1]
  Hill coefficient: 0.675
  binding activity in synaptosomal membranes (in words): sufficient binding activity
[2]
  Kd: 0.0026 µM

## C[C@]12CC[C@@H]3c4ccc(O)cc4CC[C@H]3[C@@H]1CC[C@@H]2O [17-beta-estradiol, reference compound]
[3]
  opioid antagonism, G.p.i.: none of the steroids, EH, ADDH or 17-beta-estradiol, showed opioid antagonism
[4]
  inhibitory effect on the contractions (in words): no inhibitory effect on the contractions
  opioid antagonism, m.v.d.: none of the steroids, EH, ADDH or 17-beta-estradiol, showed opioid antagonism

## C=CCN1CC[C@]23c4c5ccc(O)c4O[C@H]2C(=NN=C2CC[C@@]4(O)[C@H]6Cc7ccc(O)c8c7[C@@]4(CCN6CC=C)[C@H]2O8)CC[C@@]3(O)[C@H]1C5 [naloxone azine]
[5]
  persistence of binding (in words): long lasting effect

## Oc1ccc2c3c1O[C@H]1[C@@H](O)C=C[C@H]4[C@@H](C2)NCC[C@@]341 [normorphine, reference compound]
[6]; 25 microliters, 10^-7 M
  inhibition of contraction of the muscle (agonist effect): substantially inhibited contraction of the muscle

## C[C@]12CCC(=NN)C=C1CC[C@@H]1[C@@H]2CC[C@]2(C)C(=NN)CC[C@@H]12 [ADDH, Δ^4 androstenedione-(3,17)-dihydrazone, reference compound]
[3]
  opioid antagonism, G.p.i.: none of the steroids, EH, ADDH or 17-beta-estradiol, showed opioid antagonism
[4]
  inhibitory effect on the contractions (in words): inhibitory effects of magnitudes similar to NAL-E and NAL-AD-NAL
  opioid antagonism, m.v.d.: none of the steroids, EH, ADDH or 17-beta-estradiol, showed opioid antagonism

## C=CCN1CC[C@]23c4c5ccc(O)c4O[C@H]2C(=NN=C2CC[C@H]4[C@@H]6CCc7cc(O)ccc7[C@H]6CC[C@]24C)CC[C@@]3(O)[C@H]1C5 [NAL-E]
[7]
  Relative potency, binding assay Mu: 1.7
  Relative affinity, mu: 16
  Ki: 0.017 µM
[8]
  Relative potency, binding assay Kappa: 4.4
  Relative affinity, kappa: 14
[3]
  Relative potency, bioassay G.P.I.: 0.74
  reversal of antagonism by naloxone, G.p.i.: Nor were the NAL-E or NAL-AD-NAL antagonisms in the G.p.i. reversed by naloxone
  duration of action in the G.p.i. (in words): somewhat longer acting than their parent opioids
  t1/2 (half-time of recovery), guinea-pig M. plexus: 27 min
  Kb: 0.069 µM
[3]; compared with naloxone, mu-rich tissue
  selectivity in antagonizing normorphine (in words): far less selective
[3]; less potent than naloxone
  fold less potent than naloxone, G.p.i.: 22 fold
[9]
  Relative potency, binding assay Delta: 7.4
  Relative affinity, delta: 70
  delta affinity / selectivity (in words): delta selective; also recorded: long lasting and selectively and preferentially bind delta-type opioid receptors
[9]; listed as Nal-E
  delta affinity / selectivity (in words): far more delta selective than naloxone
[4]
  Kb: 0.0058 µM
  inhibition of DALE-induced contractions of the m.v.d.: 20-50%
  Relative potency, bioassay M.V.D.: 8.8
  t1/2 (half-time of recovery), mouse vas deferens: > 1000 min
  duration / reversibility of antagonism in the m.v.d. (in words): very longlasting; also recorded: very long lasting effects
  reversal of antagonism by naloxone, m.v.d.: not reversed by addition of naloxone
  M.V.D./G.P.I. (relative affinity): 12.0
[4]; antagonism of DALE effects
  antagonist potency versus naloxone, m.v.d.: nine-fold more potent than naloxone
[4]; compared with naloxone, delta-rich tissue
  selectivity in antagonizing D-Ala2-Leu5-enkephalin effects (in words): far more selective than naloxone
[4]; listed as NALE
  duration / reversibility of antagonism in the m.v.d. (in words): almost irreversible in some observations

## C=CCN1CC[C@]23c4c5ccc(O)c4O[C@H]2C(=O)CC[C@@]3(O)[C@H]1C5 [naloxone, reference compound]
[3]
  t1/2 (half-time of recovery), guinea-pig M. plexus: 15 min

## C=CCN1CC[C@]23c4c5ccc(O)c4O[C@H]2C(=NNC(=S)Nc2ccc4c(c2)C(=O)OC42c4ccc(O)cc4Oc4cc(O)ccc42)CC[C@@]3(O)[C@H]1C5 [6-FN, 1-(N)-Fluoresceinyl Naloxone Thiosemicarbazone]
[10]
  IC50: 0.017 µM
[6]; 10^-6 M 6-FN, 10^-7 M naloxone
  reversibility of 6-FN partial agonist activity by naloxone: reversible with 10^-7 M naloxone
[6]; 10^-6 M (FIG. 2)
  agonist activity of 6-FN in ileum: partial agonist activity; also recorded: slight agonist effect
[6]; final 6-FN concentration 10^-7 M, added prior to normorphine
  inhibition of the agonist effect of normorphine: significantly inhibited the agonist effect of normorphine
[6]; inhibition of agonist effect of normorphine, compared with naloxone
  antagonist effect relative to naloxone: ten times less effective
[6]; washing of the ileum specimen
  elimination of antagonist effect by washing: did not readily eliminate the antagonist effect
[1]
  Hill coefficient: 0.671
  binding activity in synaptosomal membranes (in words): sufficient binding activity
[2]
  Kd: 0.0115 µM

## C=CCN1CC[C@]23c4c5ccc(O)c4O[C@H]2C(=NN=C2C=C4CC[C@@H]6[C@H](CC[C@]7(C)C(=NN=C8CC[C@@]9(O)[C@H]%10Cc%11ccc(O)c%12c%11[C@@]9(CCN%10CC=C)[C@H]8O%12)CC[C@@H]67)[C@@]4(C)CC2)CC[C@@]3(O)[C@H]1C5 [NAL-AD-NAL]
[7]
  Relative potency, binding assay Mu: 18.0
  Relative affinity, mu: 78
  Ki: 0.0016 µM
[7]; compared with naloxone
  mu receptor affinity (in words): mu receptor affinity on the order of naloxone
[8]
  Relative potency, binding assay Kappa: 0.19
  Relative affinity, kappa: 7
[3]
  Relative potency, bioassay G.P.I.: 8.9
  reversal of antagonism by naloxone, G.p.i.: Nor were the NAL-E or NAL-AD-NAL antagonisms in the G.p.i. reversed by naloxone
  duration of action in the G.p.i. (in words): somewhat longer acting than their parent opioids
  t1/2 (half-time of recovery), guinea-pig M. plexus: 34 min
  Kb: 0.0057 µM
[9]
  Relative potency, binding assay Delta: 3.4
  Relative affinity, delta: 5
  delta affinity / selectivity (in words): not to show a high delta affinity
[4]
  Kb: 0.037 µM
  inhibition of DALE-induced contractions of the m.v.d.: 20-50%
  Relative potency, bioassay M.V.D.: 1.4
  t1/2 (half-time of recovery), mouse vas deferens: 19 (14-24) min
  reversal of antagonism by naloxone, m.v.d.: not reversed by addition of naloxone
  M.V.D./G.P.I. (relative affinity): 0.16

## CN1CC[C@]23c4c5ccc(O)c4O[C@H]2C(=NNC(=S)Nc2ccc4c(c2)C(=O)OC42c4ccc(O)cc4Oc4cc(O)ccc42)CC[C@@]3(O)[C@H]1C5 [6-FO, 1-(N)-fluoresceinyl oxymorphone thiosemicarbazone]
[1]
  Hill coefficient: 0.989
  binding activity in synaptosomal membranes (in words): sufficient binding activity
[11]
  Kd: 0.0128 µM

## C=CCN1CC[C@]23c4c5ccc(O)c4O[C@H]2C(=NNC(=S)Nc2ccc(-c4c6ccc(=[N+](C)C)cc-6oc6cc(N(C)C)ccc46)c(C(=O)[O-])c2)CC[C@@]3(O)[C@H]1C5 [6-RN, 1-(N)-tetramethylrhodaminyl-B-naloxone Thiosemicarbazone]
[1]
  Hill coefficient: 1.09
  binding activity in synaptosomal membranes (in words): sufficient binding activity
[1]; read-out: IC50 (concentration necessary for 50% displacement of 3H-DHM), rat brain synaptosomal plasma membranes, determined graphically
  IC50: 0.012 µM
[11]
  Kd: 0.0053 µM

## C[C@]12CC[C@@H]3c4ccc(O)cc4CC[C@H]3[C@@H]1CCC2=NN [EH, estrone hydrazone, reference compound]
[3]
  opioid antagonism, G.p.i.: none of the steroids, EH, ADDH or 17-beta-estradiol, showed opioid antagonism
[4]
  inhibitory effect on the contractions (in words): inhibitory effects of magnitudes similar to NAL-E and NAL-AD-NAL
  opioid antagonism, m.v.d.: none of the steroids, EH, ADDH or 17-beta-estradiol, showed opioid antagonism

## O=C1CC[C@@]2(O)[C@H]3Cc4ccc(O)c5c4[C@@]2(CCN3CC2CC2)[C@H]1O5 [naltrexone]
[12]
  suppression of feeding: effective in suppressing feeding

## C=CCN1CC[C@]23c4c5ccc(O)c4O[C@H]2C(NC(=S)Nc2ccc4c(c2)C(=O)OC42c4ccc(O)cc4Oc4cc(O)ccc42)CC[C@@]3(O)[C@H]1C5 (single isomer, unassigned) [FAN, N-(1-N-allyl-14-hydroxynordihydro-6δ-morphinanyl)-N'-fluorosceinyl thiourea]
[11]
  Kd: 0.0189 µM
